Test results as given in patent US11535598B2, “Histone deacetylases (HDACs) inhibitors” (ANNJI PHARMACEUTICAL CO., LTD., priority 2017, dated 2022).

Legend:
Human HDAC1 = Human HDAC1 (Homo sapiens (Human), UniProt Q13547); assay: HDAC enzymatic assay, HDAC1; type: biochemical; conditions: 10-dose IC50 mode with a 3-fold serial dilution; read-out: HDAC subtypes IC50 HDAC1
Procedure: (§1) The IC50 values for aforementioned compounds against HDACs were determined. HDAC 1 to 11 can be assayed by using acetylated AMC-labeled peptide substrate.
(§2) Human HDAC1 GenBank Accession No. NM_004964): Full length with C-terminal GST tag, MW=79.9 kDa, Human HDAC2 (GenBank Accession No. Q92769): Full length with C-terminal His tag, MW=60 kDa. Human HDAC3/NcoR2 (GenBank Accession No. […] for HDAC3, GenBank Accession No. NM_006312 for NcoR2): Complex of human HDAC3, full length with C-terminal His tag, MW=49.7 kDa, and human NCOR2, N-terminal GST tag, MW=39 kDa. Human HDAC6 (GenBank Accession No. BC069243): Full length with N-terminal GST tag, MW=159 kDa. Human HDAC8 (GenBank Accession No. NM018486): Full length, MW=42 kDa, expressed in an E. coli expression system.
(§3) Human HDAC1, Human HDAC2, Human HDAC3/NcoR2, Human HDAC6, Human HDAC10, and Human HDAC11 were all expressed by baculovirus expression system in Sf9 cells.
(§4) 50 μM HDAC substrate. 1% DMSO final. Incubation for 2 hours at 30° C.

Human HDAC8 = Human HDAC8 (Homo sapiens (Human), UniProt Q9BY41); assay: HDAC enzymatic assay, HDAC8; type: biochemical; conditions: 10-dose IC50 mode with a 3-fold serial dilution; read-out: HDAC subtypes IC50 HDAC8
Human HDAC8, sequence (Q9BY41 whole entry): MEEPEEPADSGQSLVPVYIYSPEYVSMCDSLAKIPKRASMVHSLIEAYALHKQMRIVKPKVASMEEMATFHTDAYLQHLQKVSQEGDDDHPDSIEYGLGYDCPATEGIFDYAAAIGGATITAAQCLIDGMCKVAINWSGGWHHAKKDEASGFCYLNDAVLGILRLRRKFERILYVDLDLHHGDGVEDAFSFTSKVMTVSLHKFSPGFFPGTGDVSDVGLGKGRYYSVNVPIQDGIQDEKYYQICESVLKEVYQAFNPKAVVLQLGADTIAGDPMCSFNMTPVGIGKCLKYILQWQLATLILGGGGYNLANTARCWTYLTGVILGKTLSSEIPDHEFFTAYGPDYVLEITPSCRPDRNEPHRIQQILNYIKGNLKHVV
Procedure: as §1, §2, §4

Human HDAC6 = Human HDAC6 (Homo sapiens (Human), UniProt Q9UBN7); assay: HDAC enzymatic assay, HDAC6; type: biochemical; conditions: 10-dose IC50 mode with a 3-fold serial dilution; read-out: HDAC subtypes IC50 HDAC6
Human HDAC6, sequence (Q9UBN7 whole entry): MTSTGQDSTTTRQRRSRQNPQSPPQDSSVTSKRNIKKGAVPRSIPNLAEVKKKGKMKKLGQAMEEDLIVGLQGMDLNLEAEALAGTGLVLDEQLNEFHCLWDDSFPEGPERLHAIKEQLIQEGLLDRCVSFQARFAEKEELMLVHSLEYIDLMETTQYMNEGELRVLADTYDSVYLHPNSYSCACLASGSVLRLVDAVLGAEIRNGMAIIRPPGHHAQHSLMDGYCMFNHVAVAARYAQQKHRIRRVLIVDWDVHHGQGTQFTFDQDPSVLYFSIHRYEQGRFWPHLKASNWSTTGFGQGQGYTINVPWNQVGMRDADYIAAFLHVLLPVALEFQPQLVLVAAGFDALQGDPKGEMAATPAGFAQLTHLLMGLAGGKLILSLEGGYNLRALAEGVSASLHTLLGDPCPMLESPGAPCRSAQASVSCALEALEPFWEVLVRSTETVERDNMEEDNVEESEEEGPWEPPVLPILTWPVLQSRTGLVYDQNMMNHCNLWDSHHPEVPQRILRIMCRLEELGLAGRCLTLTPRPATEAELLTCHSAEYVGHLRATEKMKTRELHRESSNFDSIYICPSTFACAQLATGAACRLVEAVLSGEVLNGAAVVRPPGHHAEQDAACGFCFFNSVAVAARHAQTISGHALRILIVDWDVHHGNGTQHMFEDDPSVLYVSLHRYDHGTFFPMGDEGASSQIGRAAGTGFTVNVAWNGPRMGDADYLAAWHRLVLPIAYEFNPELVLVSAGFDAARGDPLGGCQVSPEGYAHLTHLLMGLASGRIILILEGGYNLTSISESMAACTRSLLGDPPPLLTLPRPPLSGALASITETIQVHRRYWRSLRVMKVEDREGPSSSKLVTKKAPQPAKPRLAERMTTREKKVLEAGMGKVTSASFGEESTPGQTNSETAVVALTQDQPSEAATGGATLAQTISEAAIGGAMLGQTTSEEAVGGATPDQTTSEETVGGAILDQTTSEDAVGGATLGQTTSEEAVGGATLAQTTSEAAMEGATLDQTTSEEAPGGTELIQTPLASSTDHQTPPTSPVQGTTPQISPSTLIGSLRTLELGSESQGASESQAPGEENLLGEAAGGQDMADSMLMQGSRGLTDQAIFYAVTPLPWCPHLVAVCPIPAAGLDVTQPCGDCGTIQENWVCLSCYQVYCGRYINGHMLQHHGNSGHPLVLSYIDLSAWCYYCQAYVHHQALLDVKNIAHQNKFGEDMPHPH
Procedure: as §1, §2, §3, §4

Human HDAC11 = Human HDAC11 (Homo sapiens (Human), UniProt Q96DB2); assay: HDAC enzymatic assay, HDAC11; type: biochemical; conditions: 10-dose IC50 mode with a 3-fold serial dilution; read-out: HDAC subtypes IC50 HDAC11
Human HDAC11, sequence (Q96DB2 whole entry): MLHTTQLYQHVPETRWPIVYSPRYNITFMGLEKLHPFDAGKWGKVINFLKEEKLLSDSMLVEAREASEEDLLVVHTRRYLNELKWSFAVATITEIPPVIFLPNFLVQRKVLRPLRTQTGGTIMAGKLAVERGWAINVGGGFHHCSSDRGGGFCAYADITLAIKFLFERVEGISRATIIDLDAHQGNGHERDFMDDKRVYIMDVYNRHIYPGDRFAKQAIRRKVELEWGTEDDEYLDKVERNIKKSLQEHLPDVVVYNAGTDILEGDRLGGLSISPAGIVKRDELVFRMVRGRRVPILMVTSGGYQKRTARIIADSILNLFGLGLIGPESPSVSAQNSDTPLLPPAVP
Procedure: as §1, §2, §3, §4

in vitro [1] = conditions: human
HepG2 = conditions: human, 72 h
Procedure: (§5) Cells were seeded in 96-well plates at a density of 5×10^3 cells per well and allowed to attach for 24 h before compound treatment. […] At end of the treatment period 72 h, 20 μl (5 mg/mL) 3-(4,5-dimethylthiazol-2-yl)-2,5-diphenyl-tetrazolium bromide (MTT) reagent was added each well. After 4 h incubation at 37° C., the supernatant was aspirated and the formazan crystals were dissolved in 100 μl of DMSO at 37° C. for 10 min with gentle agitation. The absorbance was measured at 570 nm using the Molecular Devices Microplate Reader. […] IC50 values were calculated from the relative viability values and concentrations by regression analysis.

LNCap = conditions: human, 72 h
Procedure: as §5

A549 = conditions: human, 72 h
Procedure: as §5

U87MG = conditions: human, 72 h
Procedure: as §5

PANC1 = conditions: human, 72 h
in vitro [2] = conditions: monkey
Procedure: as §5

Human HDAC1, sequence (Q13547 whole entry): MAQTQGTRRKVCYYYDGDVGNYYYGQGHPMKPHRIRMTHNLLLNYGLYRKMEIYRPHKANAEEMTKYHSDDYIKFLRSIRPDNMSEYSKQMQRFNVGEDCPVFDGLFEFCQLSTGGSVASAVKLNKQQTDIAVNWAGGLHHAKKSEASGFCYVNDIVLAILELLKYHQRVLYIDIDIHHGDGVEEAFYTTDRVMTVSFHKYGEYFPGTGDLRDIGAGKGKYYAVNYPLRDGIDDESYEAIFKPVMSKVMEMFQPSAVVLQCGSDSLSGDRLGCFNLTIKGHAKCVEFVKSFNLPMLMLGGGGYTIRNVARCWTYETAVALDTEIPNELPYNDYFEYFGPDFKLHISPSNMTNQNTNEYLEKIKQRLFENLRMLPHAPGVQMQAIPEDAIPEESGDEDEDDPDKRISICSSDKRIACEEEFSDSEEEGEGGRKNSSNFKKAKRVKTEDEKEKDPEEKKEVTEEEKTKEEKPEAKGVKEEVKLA

Structure (SMILES) | IC50 (Human HDAC1) [µM] | IC50 (Human HDAC8) [µM] | IC50 (Human HDAC6) [µM] | IC50 (Human HDAC11) [µM] | IC50 at 72 h (in vitro [1]) [µM] | IC50 (HepG2) [µM] | IC50 (LNCap) [µM] | IC50 (A549) [µM] | IC50 (U87MG) [µM] | IC50 (PANC1) [µM] | IC50 at 72 h (in vitro [2]) [µM]
O=C(NO)c1ccc(Cn2c(=O)n(CCc3ccccc3O)c(=O)c3ccccc32)cc1 [Compound 18, N-hydroxy-4-((3-(2-hydroxyphenethyl)-2,4-dioxo-3,4-dihydroquinazolin-1(2H)-yl)methyl)benzamide] | 8.83 | 0.4 | 0.006 | 16.7 |  |  |  |  |  |  | 
O=C(NO)C(F)(F)c1ccc(Cn2c(=O)n(CCc3ccccc3)c(=O)c3ccccc32)cc1 [Compound 20, 2-(4-((2,4-dioxo-3-phenethyl-3,4-dihydroquinazolin-1(2H)-yl)methyl)phenyl)-2,2-difluoro-N-hydroxyacetamide] |  |  |  |  | > 200 | 7.43 ± 0.27 | 9.97 ± 0.08 | > 10 | 9.67 ± 0.66 | > 10 | > 200
O=C(NO)c1ccc(Cn2c(=O)n(CCc3ccccc3)c(=O)c3ccsc32)cc1 [Compound 21, 4-((2,4-dioxo-3-phenethyl-3,4-dihydrothieno[2,3-d]pyrimidin-1(2H)-yl)methyl)-N-hydroxybenzamide] | 6.66 | 0.169 | 0.015 | 5.69 | 63.11 ± 0.17 | 3.55 ± 0.14 | 0.98 ± 0.06 | 3.22 ± 0.31 | 2.93 ± 0.13 | 4.72 ± 0.37 | 81.51 ± 0.18
O=C(NO)c1ccc(Cn2c(=O)n(CCc3cccs3)c(=O)c3ccccc32)cc1 [Compound 24, 4-((2,4-dioxo-3-(2-(thiophen-2-yl)ethyl)-3,4-dihydroquinazolin-1(2H)-yl)methyl)-N-hydroxybenzamide] | 10.7 | 0.287 | 0.011 | 10 | 60.41 ± 0.22 | 4.11 ± 0.27 | 3.83 ± 0.17 | 4.69 ± 0.17 | 4.18 ± 0.22 | > 10 | 76.31 ± 0.32
O=C(NO)c1cc(Cn2c(=O)n(CCc3ccccc3)c(=O)c3ccccc32)cs1 [Compound 25, 4-((2,4-dioxo-3-phenethyl-3,4-dihydroquinazolin-1(2H)-yl)methyl)-N-hydroxythiophene-2-carboxamide] | > 30 | 1.19 | 1.19 | 129 | 105.1 ± 0.25 | 5.31 ± 0.37 | 5.77 ± 0.46 | 6.25 ± 0.33 | 5.23 ± 0.21 | 8.13 ± 0.28 | 106.3 ± 0.29
O=C(NO)c1ccc(Cn2c(=O)n(CCc3ccccc3)c(=O)c3ccc(C4CC4)cc32)cc1 [Compound 27, 4-((7-cyclopropyl-2,4-dioxo-3-phenethyl-3,4-dihydroquinazolin-1(2H)-yl)methyl)-N-hydroxybenzamide] | 14.5 | 3.06 | 0.168 | 10.5 |  |  |  |  |  |  | 
CNc1ccc(CCn2c(=O)c3ccccc3n(Cc3ccc(C(=O)NO)cc3)c2=O)cc1 [Compound 29, N-hydroxy-4-((3-(4-(methylamino)phenethyl)-2,4-dioxo-3,4-dihydroquinazolin-1(2H)-yl)methyl)benzamide] | 4.38 | 1.42 | 0.025 | 3.8 |  |  |  |  |  |  | 
O=C(NO)c1ccc(Cn2c(=O)n(CCc3ccc(N4CCOCC4)cc3)c(=O)c3ccccc32)cc1 [Compound 30, N-hydroxy-4-((3-(4-morpholinophenethyl)-2,4-dioxo-3,4-dihydroquinazolin-1(2H)-yl)methyl)benzamide] | 9.79 | 0.979 | 0.014 | 22.8 |  |  |  |  |  |  | 
